{"source": "patent US20180148687A1", "about": "(priority 2015, published 2018)", "key": {"P2X3 receptors": {"biological_target": "T1, P2X3 receptors (Homo sapiens, UniProt P56373)", "T1 sequence (P56373 1-397)": "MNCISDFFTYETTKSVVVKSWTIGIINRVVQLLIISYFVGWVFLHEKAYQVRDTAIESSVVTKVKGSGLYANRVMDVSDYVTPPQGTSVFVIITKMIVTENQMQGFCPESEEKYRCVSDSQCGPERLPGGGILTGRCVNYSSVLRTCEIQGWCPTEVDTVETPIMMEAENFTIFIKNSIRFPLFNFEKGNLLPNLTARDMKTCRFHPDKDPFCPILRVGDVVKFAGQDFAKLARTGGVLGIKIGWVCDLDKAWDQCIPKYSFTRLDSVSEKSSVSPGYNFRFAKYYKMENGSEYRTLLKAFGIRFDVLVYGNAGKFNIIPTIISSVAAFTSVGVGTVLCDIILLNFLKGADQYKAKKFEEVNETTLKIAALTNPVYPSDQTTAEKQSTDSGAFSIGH", "format": "cell-based", "procedure": "(§1) Differentiated cells at 1-2 weeks were loaded with Fluo-4-AM fluorescence dye (Invitrogen, Calif.) for 1 hr incubation followed by 45 mins period for de-esterification. Cells were washed and incubated in Hanks' balanced salt solution (HBSS), supplemented with 25 mM HEPES buffer, 5.5 mM Glucose. Calcium flux was monitored using an Olympus IX81 inverted epi-fluorescence microscope (Olympus, Markham, ON) coupled to a xenon arc lamp (EXFO, Quebec, QC). Indicated agonists, α,β-methylene-ATP or capsaicin, were diluted in the aforementioned solution and added to the well to give the final stimulation concentration (30 μM α,β-methylene-ATP, 1 μM capsaicin) using a dropping pipette and aspirator system. Fluorescence images were collected using an EMCCD camera (Photometrics, Tucson, Ark.) every 2 s through a GFP filter cube (Semrock, Rochester, N.Y.). In a subset of wells, ionomycin was added as a second stimulation for the dye loading control. […] Off-line analysis of the intensity pattern of Fluo-4 signal was performed in ImageJ (NIH, Bethesda, Md.)."}, "[1]": {"test_system": "BD-iNPC derived sensory neurons", "experiment": "In vitro chemotherapy induced neuropathy model: neurite length and cell count", "format": "cell-based, human", "conditions": "48 hours after treatment", "excerpt": "This miniaturized and automated approach illustrates the potential utility of these converted cells as an in vitro model of human axonopathy for drug-discovery and form the basis to expand to other PNS and CNS disorders."}, "TRPV1 vanilloid receptor": {"biological_target": "T2, TRPV1 vanilloid receptor (Homo sapiens, UniProt Q8NER1)", "T2 construct": "endogenous in cells; host or cells: nociceptive sensory neurons differentiated from human blood derived iNPCs", "T2 sequence (Q8NER1 whole entry)": "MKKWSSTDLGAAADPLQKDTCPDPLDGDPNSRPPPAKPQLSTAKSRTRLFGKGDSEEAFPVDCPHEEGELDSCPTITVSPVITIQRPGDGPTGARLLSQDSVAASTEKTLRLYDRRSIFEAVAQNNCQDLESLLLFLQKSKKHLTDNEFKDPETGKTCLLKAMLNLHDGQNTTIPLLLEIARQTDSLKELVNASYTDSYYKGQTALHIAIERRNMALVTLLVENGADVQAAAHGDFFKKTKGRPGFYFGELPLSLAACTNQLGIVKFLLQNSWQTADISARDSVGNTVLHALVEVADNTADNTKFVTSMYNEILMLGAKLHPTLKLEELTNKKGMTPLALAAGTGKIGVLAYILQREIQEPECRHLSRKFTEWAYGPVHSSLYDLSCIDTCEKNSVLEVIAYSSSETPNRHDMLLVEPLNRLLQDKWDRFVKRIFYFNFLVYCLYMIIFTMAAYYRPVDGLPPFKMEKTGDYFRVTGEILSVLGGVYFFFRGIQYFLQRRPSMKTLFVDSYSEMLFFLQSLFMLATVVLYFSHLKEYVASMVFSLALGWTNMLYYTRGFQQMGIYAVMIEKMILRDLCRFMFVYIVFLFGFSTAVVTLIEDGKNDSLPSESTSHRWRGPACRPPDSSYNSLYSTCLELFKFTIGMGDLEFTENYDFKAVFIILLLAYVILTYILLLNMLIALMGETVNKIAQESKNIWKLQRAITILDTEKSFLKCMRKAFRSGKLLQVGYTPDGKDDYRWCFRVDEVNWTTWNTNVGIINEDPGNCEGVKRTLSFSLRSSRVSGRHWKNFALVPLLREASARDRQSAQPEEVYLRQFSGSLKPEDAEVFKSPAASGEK", "experiment": "Calcium imaging (Fluo-4) of BD-iNPC derived sensory neurons, capsaicin response", "format": "cell-based", "conditions": "1 μM", "procedure": "as §1"}, "[2]": {"test_system": "voltage-activated sodium channels", "format": "cell-based, human"}}, "note": "Read-outs that look alike come from different tables or passages of the source.", "data": [{"smiles": "O=C(O)c1cc(C(=O)O)c(C(=O)N(Cc2cccc(Oc3ccccc3)c2)[C@H]2CCCc3ccccc32)cc1C(=O)O", "note": "[A-317491]", "values": [{"measurement": "calcium-response to α,β-methylene ATP", "setting": "P2X3 receptors; antagonist added 15 min before calcium imaging, 30 μM α,β-methylene-ATP stimulation", "value": "significantly decreased"}]}, {"smiles": "CC(=O)O[C@H]1C(=O)[C@@]2(C)[C@H]([C@H](OC(=O)c3ccccc3)[C@]3(O)C[C@H](OC(=O)[C@H](O)[C@@H](NC(=O)c4ccccc4)c4ccccc4)C(C)=C1C3(C)C)[C@]1(OC(C)=O)CO[C@@H]1C[C@@H]2O", "note": "[Taxol]", "values": [{"measurement": "neurite length of sensory neurons", "setting": "[1]", "value": "dose-dependent reduction in length"}, {"measurement": "viability (cell count) of sensory neurons", "setting": "[1]", "value": "without concomitant loss of viability"}]}, {"smiles": "COc1cc(CNC(=O)CCCC/C=C/C(C)C)ccc1O", "note": "[capsaicin]", "values": [{"measurement": "calcium transients in BD-iNPC derived neurons", "setting": "TRPV1 vanilloid receptor", "value": "could evoke calcium transients"}]}, {"smiles": "NC1=N[C@H](O)[C@H]2[C@H]3O[C@]4(O)O[C@@H]([C@@H](O)[C@@]2(N1)[C@@H]4O)[C@]3(O)CO", "note": "[tetrodotoxin]", "values": [{"measurement": "rapidly activating and inactivating inward currents", "setting": "[2]", "value": "blocked"}]}, {"smiles": "Nc1ncnc2c1ncn2[C@@H]1O[C@H](COP(=O)(O)CP(=O)(O)OP(=O)(O)O)[C@@H](O)[C@H]1O", "note": "[α,β-methylene-ATP]", "values": [{"measurement": "calcium transients in BD-iNPC derived neurons", "setting": "P2X3 receptors; 30 μM", "value": "could evoke calcium transients"}, {"measurement": "calcium flux response", "setting": "P2X3 receptors; 30 μM, continued culture to day 14", "value": "robust response"}, {"measurement": "calcium flux response", "setting": "P2X3 receptors; 30 μM, neurons at day 7 post-induction", "value": "minimal response"}]}]}
